Numbers after ± are expanded uncertainties.
Tests used:
[1] = for viscosity: 298 K, moving piston; for viscosity / thermal conductivity / mass density: 101.33 kPa, Liquid; for thermal conductivity: hot wire; for mass density: 333.1 K, Vibrating tube method; for Normal melting temperature: Crystal
[2] = molar heat capacity at constant pressure; conditions: 101.33 kPa, Liquid, Small sample (50 mg) DSC
[3] = Molar enthalpy of transition or fusion; conditions: Crystal; DSC

Row | SMILES | viscosity [1] | thermal conductivity ([1]; 300 K) | thermal conductivity ([1]; 310 K) | thermal conductivity ([1]; 320 K) | thermal conductivity ([1]; 330 K) | mass density [1] | thermal conductivity ([1]; 340 K) | thermal conductivity ([1]; 350 K) | thermal conductivity ([1]; 360 K) | thermal conductivity ([1]; 370 K) | thermal conductivity ([1]; 380 K) | thermal conductivity ([1]; 390 K) | Normal melting temperature ([1]; DTA) | molar heat capacity at constant pressure ([2]; 323.15 K) | molar heat capacity at constant pressure ([2]; 348.15 K) | molar heat capacity at constant pressure ([2]; 373.15 K) | molar heat capacity at constant pressure ([2]; 398.15 K) | molar heat capacity at constant pressure ([2]; 423.15 K) | molar heat capacity at constant pressure ([2]; 448.15 K) | molar heat capacity at constant pressure ([2]; 473.15 K) | further results
1 | CCC[n+]1ccn(C)c1C.O=S(=O)([N-]S(=O)(=O)C(F)(F)F)C(F)(F)F | 90.05 ± 2.7 mPa·s | 0.13 ± 0.005 W/m/K | 0.13 ± 0.005 W/m/K | 0.129 ± 0.005 W/m/K | 0.129 ± 0.005 W/m/K | 1420.5 ± 0.8 kg/m3 | 0.128 ± 0.005 W/m/K | 0.128 ± 0.005 W/m/K | 0.127 ± 0.005 W/m/K | 0.127 ± 0.005 W/m/K | 0.126 ± 0.005 W/m/K | 0.126 ± 0.005 W/m/K | 11.29 ± 2.6 °C | 473.46 ± 190 J/K/mol | 487.72 ± 200 J/K/mol | 501.98 ± 200 J/K/mol | 515.4 ± 210 J/K/mol | 528.4 ± 210 J/K/mol | 540.98 ± 220 J/K/mol | 553.14 ± 220 J/K/mol | molar heat capacity at constant pressure ([2]; 498.15 K): 564.47 ± 230 J/K/mol; molar heat capacity at constant pressure ([2]; 523.15 K): 575.79 ± 230 J/K/mol; molar heat capacity at constant pressure ([2]; 548.15 K): 586.69 ± 230 J/K/mol; molar heat capacity at constant pressure ([2]; 573.15 K): 597.18 ± 240 J/K/mol; molar heat capacity at constant pressure ([2]; 598.15 K): 607.24 ± 240 J/K/mol; molar heat capacity at constant pressure ([2]; 623.15 K): 616.89 ± 250 J/K/mol; molar heat capacity at constant pressure ([2]; 663.15 K): 631.15 ± 250 J/K/mol; Molar enthalpy of transition or fusion [3]: 4.71 ± 1.91 kcal/mol
2 | CCCCn1cc[n+](C)c1.F[B-](F)(F)F [1-butyl-3-methylimidazolium tetrafluoroborate] | 119.78 ± 4.1 mPa·s | 0.186 ± 0.006 W/m/K | 0.185 ± 0.006 W/m/K | 0.184 ± 0.006 W/m/K | 0.184 ± 0.006 W/m/K | 1174.7 ± 0.7 kg/m3 | 0.183 ± 0.006 W/m/K | 0.183 ± 0.006 W/m/K | 0.182 ± 0.006 W/m/K | 0.181 ± 0.006 W/m/K | 0.181 ± 0.006 W/m/K | 0.18 ± 0.006 W/m/K |  | 341.75 ± 140 J/K/mol | 355.76 ± 140 J/K/mol | 367.74 ± 150 J/K/mol | 378.36 ± 150 J/K/mol | 386.95 ± 150 J/K/mol | 393.96 ± 160 J/K/mol | 399.16 ± 160 J/K/mol | Glass transition temperature ([1]; Glass, DTA): -87.38 ± 2.6 °C; molar heat capacity at constant pressure ([2]; 223.15 K): 268.74 ± 110 J/K/mol; molar heat capacity at constant pressure ([2]; 248.15 K): 289.54 ± 120 J/K/mol; molar heat capacity at constant pressure ([2]; 273.15 K): 308.75 ± 120 J/K/mol; molar heat capacity at constant pressure ([2]; 298.15 K): 326.15 ± 130 J/K/mol; molar heat capacity at constant pressure ([2]; 498.15 K): 402.77 ± 160 J/K/mol; molar heat capacity at constant pressure ([2]; 523.15 K): 404.35 ± 160 J/K/mol; molar heat capacity at constant pressure ([2]; 548.15 K): 404.35 ± 160 J/K/mol; molar heat capacity at constant pressure ([2]; 573.15 K): 402.77 ± 160 J/K/mol
3 | CCn1cc[n+](C)c1.F[B-](F)(F)F [1-ethyl-3-methylimidazolium tetrafluoroborate] | 36.07 ± 0.75 mPa·s | 0.199 ± 0.006 W/m/K | 0.197 ± 0.006 W/m/K | 0.196 ± 0.006 W/m/K | 0.195 ± 0.006 W/m/K | 1252.6 ± 0.8 kg/m3 | 0.194 ± 0.006 W/m/K | 0.193 ± 0.006 W/m/K | 0.191 ± 0.006 W/m/K | 0.19 ± 0.006 W/m/K | 0.189 ± 0.006 W/m/K | 0.188 ± 0.006 W/m/K | 14.42 ± 1.1 °C |  |  | 257.95 ± 100 J/K/mol |  |  |  |  | molar heat capacity at constant pressure ([2]; 273.15 K): 244.49 ± 98 J/K/mol; molar heat capacity at constant pressure ([2]; 293.15 K): 250.04 ± 100 J/K/mol; molar heat capacity at constant pressure ([2]; 313.15 K): 254 ± 100 J/K/mol; molar heat capacity at constant pressure ([2]; 333.15 K): 256.77 ± 100 J/K/mol; molar heat capacity at constant pressure ([2]; 353.15 K): 258.15 ± 100 J/K/mol; molar heat capacity at constant pressure ([2]; 393.15 K): 256.57 ± 100 J/K/mol; molar heat capacity at constant pressure ([2]; 403.15 K): 255.18 ± 100 J/K/mol; Molar enthalpy of transition or fusion [3]: 2.28 ± 0.908 kcal/mol
